Results: patent US7015215B2, “Pyrrolo[2,1-c][1,4] benzodiazepines compounds and process thereof” (Council of Scientific and Industrial Research, priority 2003, dated 2006)

Assays:
SNB-19 = experiment: NCI SRB cytotoxicity, CNS SNB-19; assay type: cell-based, human; settings: SNB-19, CNS, 48 h
Protocol: (§1) Biological Activity: In vitro biological activity studies were carried out at National Cancer Institute (U.S.A.).
(§2) For each compound, dose response curves for each cell line were measured at a minimum of five concentrations at 10 fold dilutions. A protocol of 48 h continuous drug exposure was used, and a sulforhodamine B (SRB) protein assay was used to estimate cell viability or growth. The concentration causing 50% cell growth inhibition (GI50), total cell growth inhibition (TGI, 0% growth) and 50% cell death (LC50, −50% growth) compared with the control was calculated.

SNB-75 = experiment: NCI SRB cytotoxicity, CNS SNB-75; assay type: cell-based, human; settings: SNB-75, CNS, 48 h
Protocol: as §1, §2

OVCAR-3 = experiment: NCI SRB cytotoxicity, Ovarian OVCAR-3; assay type: cell-based, human; settings: OVCAR-3, Ovarian, 48 h
Protocol: as §1, §2

SK-MEL-5 = experiment: NCI SRB cytotoxicity, Melanoma SK-MEL-5; assay type: cell-based, human; settings: SK-MEL-5, Melanoma, 48 h
Protocol: as §1, §2

DU-145 = experiment: NCI SRB cytotoxicity, Prostate DU-145; assay type: cell-based, human; settings: DU-145, Prostate, 48 h
Protocol: as §2

SK-MEL-28 = experiment: NCI SRB cytotoxicity, Melanoma SK-MEL-28; assay type: cell-based, human; settings: SK-MEL-28, Melanoma, 48 h
Protocol: as §1, §2

SW-620 = experiment: NCI SRB cytotoxicity, Colon SW-620; assay type: cell-based, human; settings: SW-620, Colon, 48 h
Protocol: as §1, §2

SF-295 = experiment: NCI SRB cytotoxicity, CNS SF-295; assay type: cell-based, human; settings: SF-295, CNS, 48 h
Protocol: as §1, §2

COLO 205 = experiment: NCI SRB cytotoxicity, Colon COLO 205; assay type: cell-based, human; settings: COLO 205, Colon, 48 h
Protocol: as §1, §2

A498 = experiment: NCI SRB cytotoxicity, Renal A498; assay type: cell-based, human; settings: 48 h
Protocol: as §1, §2

UACC-257 = experiment: NCI SRB cytotoxicity, Melanoma UACC-257; assay type: cell-based, human; settings: UACC-257, Melanoma, 48 h
Protocol: as §1, §2

NCI-H460 = experiment: NCI SRB cytotoxicity, Non-small-cell lung NCI-H460; assay type: cell-based, human; settings: 48 h
Protocol: as §1, §2

RXF 393 = experiment: NCI SRB cytotoxicity, Renal RXF 393; assay type: cell-based, human; settings: RXF 393, Renal, 48 h
Protocol: as §2

M14 = experiment: NCI SRB cytotoxicity, Melanoma M14; assay type: cell-based, human; settings: 48 h
Protocol: as §1, §2

T-47D = experiment: NCI SRB cytotoxicity, Breast T-47D; assay type: cell-based, human; settings: 48 h
Protocol: as §1, §2

TK-10 = experiment: NCI SRB cytotoxicity, Renal TK-10; assay type: cell-based, human; settings: TK-10, Renal, 48 h
Protocol: as §1, §2

SF-268 = experiment: NCI SRB cytotoxicity, CNS SF-268; assay type: cell-based, human; settings: SF-268, CNS, 48 h
Protocol: as §1, §2

SN12C = experiment: NCI SRB cytotoxicity, Renal SN12C; assay type: cell-based, human; settings: 48 h
Protocol: as §1, §2

NCI/ADR-RES = experiment: NCI SRB cytotoxicity, Breast NCI/ADR-RES; assay type: cell-based, human; settings: 48 h
Protocol: as §1, §2

ACHN = experiment: NCI SRB cytotoxicity, Renal ACHN; assay type: cell-based, human; settings: 48 h
Protocol: as §1, §2

MDA-MB-231/ATCC = experiment: NCI SRB cytotoxicity, Breast MDA-MB-231/ATCC; assay type: cell-based, human; settings: 48 h
Protocol: as §1, §2

human tumor cell lines = experiment: NCI in vitro cytotoxicity SRB assay, mean graph midpoints over the panel; assay type: cell-based; settings: 48 h continuous exposure
Protocol: as §1, §2

MOLT-4 = experiment: NCI SRB cytotoxicity, Leukemia MOLT-4; assay type: cell-based, human; settings: MOLT-4, Leukemia, 48 h
Protocol: as §1, §2

BT-549 = experiment: NCI SRB cytotoxicity, Breast BT-549; assay type: cell-based, human; settings: BT-549, Breast, 48 h
Protocol: as §1, §2

786-0 = experiment: NCI SRB cytotoxicity, Renal 786-0; assay type: cell-based, human; settings: 786-0, Renal, 48 h
Protocol: as §1, §2

OVCAR-4 = experiment: NCI SRB cytotoxicity, Ovarian OVCAR-4; assay type: cell-based, human; settings: OVCAR-4, Ovarian, 48 h
Protocol: as §1, §2

SF-539 = experiment: NCI SRB cytotoxicity, CNS SF-539; assay type: cell-based, human; settings: SF-539, CNS, 48 h
Protocol: as §1, §2

MDA-MB-435 = experiment: NCI SRB cytotoxicity, Breast MDA-MB-435; assay type: cell-based, human; settings: MDA-MB-435, Breast, 48 h
Protocol: as §1, §2

PC-3 = experiment: NCI SRB cytotoxicity, Prostate PC-3; assay type: cell-based, human; settings: PC-3, Prostate, 48 h
Protocol: as §2

CAKI-1 = experiment: NCI SRB cytotoxicity, Renal CAKI-1; assay type: cell-based, human; settings: CAKI-1, Renal, 48 h
Protocol: as §1, §2

RPMI-8226 = experiment: NCI SRB cytotoxicity, Leukemia RPMI-8226; assay type: cell-based, human; settings: RPMI-8226, Leukemia, 48 h
Protocol: as §2

HT-29 = experiment: NCI SRB cytotoxicity, Colon HT-29; assay type: cell-based, human; settings: HT-29, Colon, 48 h
Protocol: as §1, §2

UO-31 = experiment: NCI SRB cytotoxicity, Renal UO-31; assay type: cell-based, human; settings: UO-31, Renal, 48 h
Protocol: as §2

HCC-2998 = experiment: NCI SRB cytotoxicity, Colon HCC-2998; assay type: cell-based, human; settings: HCC-2998, Colon, 48 h
Protocol: as §1, §2

HCT-15 = experiment: NCI SRB cytotoxicity, Colon HCT-15; assay type: cell-based, human; settings: HCT-15, Colon, 48 h
Protocol: as §1, §2

EKVX = experiment: NCI SRB cytotoxicity, Non-small-cell lung EKVX; assay type: cell-based, human; settings: 48 h
Protocol: as §1, §2

SR = experiment: NCI SRB cytotoxicity, Leukemia SR; assay type: cell-based, human; settings: 48 h
Protocol: as §1, §2

## COc1cc2c(cc1OCCCN1CCN(CCCOc3cc4c(cc3OC)C(=O)N3CCC[C@H]3C=N4)CC1)N=C[C@@H]1CCCN1C2=O [Compound VIb, 1,1′-{[(bispropane-1,N-diyl)piperazine]dioxy}bis[(11aS)-7-methoxy-1,2,3,11a-tetrahydro-5H-pyrrolo[2,1-c][1,4]benzodiazepin-5-one]]
SNB-19
  Log GI 50: −5.06 mol/L
  Log LC 50: −4.00 mol/L
SNB-75
  Log GI 50: −4.61 mol/L
  Log LC 50: −4.00 mol/L
OVCAR-3
  Log GI 50: −5.47 mol/L
  Log LC 50: −4.00 mol/L
SK-MEL-5
  Log GI 50: −5.66 mol/L
  Log LC 50: −4.50 mol/L
DU-145
  Log GI 50: −5.62 mol/L
  Log LC 50: −4.00 mol/L
SK-MEL-28
  Log GI 50: −4.48 mol/L
  Log LC 50: −4.00 mol/L
SW-620
  Log GI 50: −6.23 mol/L
  Log LC 50: −4.00 mol/L
SF-295
  Log GI 50: −4.99 mol/L
  Log LC 50: −4.00 mol/L
COLO 205
  Log GI 50: −5.34 mol/L
  Log LC 50: −4.00 mol/L
A498
  Log GI 50: −5.73 mol/L
  Log LC 50: −4.00 mol/L
UACC-257
  Log GI 50: −4.45 mol/L
  Log LC 50: −4.00 mol/L
NCI-H460
  Log GI 50: −5.37 mol/L
  Log LC 50: −4.00 mol/L
RXF 393
  Log GI 50: −5.68 mol/L
  Log LC 50: −4.09 mol/L
M14
  Log GI 50: −5.55 mol/L
  Log LC 50: −4.00 mol/L
T-47D
  Log GI 50: −5.16 mol/L
  Log LC 50: −4.00 mol/L
TK-10
  Log GI 50: −5.10 mol/L
  Log LC 50: −4.00 mol/L
SF-268
  Log GI 50: −5.52 mol/L
SN12C
  Log GI 50: −4.44 mol/L
  Log LC 50: −4.00 mol/L
NCI/ADR-RES
  Log GI 50: −4.00 mol/L
  Log LC 50: −4.00 mol/L
ACHN
  Log GI 50: −4.47 mol/L
  Log LC 50: −4.00 mol/L
MDA-MB-231/ATCC
  Log GI 50: −4.52 mol/L
  Log LC 50: −4.00 mol/L
Human tumor cell lines
  Log10 GI50 mean graph midpoint (MG_MID): −5.19
  Log10 LC50 mean graph midpoint (MG_MID): −4.01
  Log10 TGI mean graph midpoint (MG_MID): −4.22
MOLT-4
  Log GI 50: −6.50 mol/L
  Log LC 50: −4.08 mol/L
BT-549
  Log GI 50: −5.77 mol/L
  Log LC 50: −4.00 mol/L
786-0
  Log GI 50: −5.30 mol/L
  Log LC 50: −4.00 mol/L
OVCAR-4
  Log GI 50: −4.13 mol/L
  Log LC 50: −4.00 mol/L
SF-539
  Log GI 50: −6.21 mol/L
  Log LC 50: −4.00 mol/L
MDA-MB-435
  Log GI 50: −5.37 mol/L
  Log LC 50: −4.09 mol/L
PC-3
  Log GI 50: −5.53 mol/L
  Log LC 50: −4.00 mol/L
CAKI-1
  Log GI 50: −4.65 mol/L
  Log LC 50: −4.00 mol/L
RPMI-8226
  Log GI 50: −6.73 mol/L
  Log LC 50: −4.00 mol/L
HT-29
  Log GI 50: −4.46 mol/L
  Log LC 50: −4.00 mol/L
UO-31
  Log GI 50: −4.27 mol/L
  Log LC 50: −4.00 mol/L
HCC-2998
  Log GI 50: −4.73 mol/L
  Log LC 50: −4.04 mol/L
HCT-15
  Log GI 50: −4.25 mol/L
  Log LC 50: −4.00 mol/L
EKVX
  Log GI 50: −4.47 mol/L
  Log LC 50: −4.00 mol/L

## COc1cc2c(cc1OCCCCN1CCN(CCCCOc3cc4c(cc3OC)C(=O)N3CCC[C@H]3C=N4)CC1)N=C[C@@H]1CCCN1C2=O [Compound VIc, 1,1′-{[(bisbutane-1,N-diyl)piperazine]dioxy}bis[(11aS)-7-methoxy-1,2,3,11a-tetrahydro-5H-pyrrolo[2,1-c][1,4]benzodiazepin-5-one]]
SNB-19
  Log LC 50: −4.44 mol/L
SNB-75
  Log GI 50: −7.94 mol/L
  Log LC 50: −4.00 mol/L
OVCAR-3
  Log GI 50: −7.91 mol/L
  Log LC 50: −4.00 mol/L
SK-MEL-5
  Log GI 50: −7.86 mol/L
  Log LC 50: −6.68 mol/L
DU-145
  Log GI 50: −7.60 mol/L
  Log LC 50: −4.00 mol/L
SK-MEL-28
  Log GI 50: −7.69 mol/L
  Log LC 50: −4.00 mol/L
SF-295
  Log LC 50: −4.69 mol/L
COLO 205
  Log GI 50: −7.99 mol/L
  Log LC 50: −6.26 mol/L
A498
  Log GI 50: −6.89 mol/L
UACC-257
  Log GI 50: −7.65 mol/L
NCI-H460
  Log LC 50: −4.00 mol/L
RXF 393
  Log GI 50: −7.54 mol/L
  Log LC 50: −4.00 mol/L
M14
  Log GI 50: −7.60 mol/L
  Log LC 50: −4.17 mol/L
T-47D
  Log LC 50: −4.00 mol/L
TK-10
  Log GI 50: −7.69 mol/L
  Log LC 50: −4.00 mol/L
SF-268
  Log LC 50: −4.00 mol/L
SN12C
  Log LC 50: −4.00 mol/L
NCI/ADR-RES
  Log GI 50: −6.47 mol/L
  Log LC 50: −4.00 mol/L
ACHN
  Log LC 50: −4.00 mol/L
MDA-MB-231/ATCC
  Log GI 50: −7.47 mol/L
  Log LC 50: −4.43 mol/L
Human tumor cell lines
  Log10 GI50 mean graph midpoint (MG_MID): −7.70
  Log10 LC50 mean graph midpoint (MG_MID): −4.47
  Log10 TGI mean graph midpoint (MG_MID): −5.95
SR
  Log LC 50: −5.62 mol/L
MOLT-4
  Log LC 50: −4.00 mol/L
BT-549
  Log GI 50: −7.68 mol/L
  Log LC 50: −4.00 mol/L
786-0
  Log LC 50: −4.00 mol/L
OVCAR-4
  Log GI 50: −7.11 mol/L
  Log LC 50: −4.00 mol/L
SF-539
  Log LC 50: −4.00 mol/L
MDA-MB-435
  Log GI 50: −7.87 mol/L
  Log LC 50: −7.15 mol/L
PC-3
  Log GI 50: −7.02 mol/L
  Log LC 50: −4.00 mol/L
CAKI-1
  Log LC 50: −4.28 mol/L
RPMI-8226
  Log GI 50: −7.81 mol/L
  Log LC 50: −4.60 mol/L
HT-29
  Log GI 50: −7.89 mol/L
  Log LC 50: −4.00 mol/L
UO-31
  Log GI 50: −6.65 mol/L
  Log LC 50: −4.00 mol/L
HCC-2998
  Log GI 50: −7.95 mol/L
  Log LC 50: −4.00 mol/L
HCT-15
  Log GI 50: −7.92 mol/L
  Log LC 50: −6.37 mol/L
EKVX
  Log GI 50: −6.36 mol/L
  Log LC 50: −4.00 mol/L
